From ChEMBL document CHEMBL3217442, “Synthesis and bioevaluation of aryl hydroxamates distinguishing between NAD+ and ATP-dependent DNA ligases” (Medchemcomm, 2012)
Values after ≈ are worked out from the molar mass of the structure shown. Active and inactive are the calls of the source. The calls are words filed in the database; no cut-off is given here.

Legend:
[1] = system: Escherichia coli; experiment: Antibacterial activity against Escherichia coli GR501 harboring temperature sensitive lig251 mutant rescued with T4 DNA ligase after 20 hrs; format: functional
[2] = system: Salmonella typhimurium; experiment: Antibacterial activity against Salmonella typhimurium LT2 expressing LigA after 20 hrs; format: functional
[3] = system: Salmonella typhimurium; experiment: Antibacterial activity against Salmonella typhimurium TT15151 harboring LigA null mutant rescued with ATP-dependent DNA ligase after 20 hrs; format: functional, Salmonella enterica subsp. enterica serovar Typhimurium
[4] = Inhibition of Mycobacterium tuberculosis DNA LigA using 22-mer and 18-mer DNA complementary strand as substrate after 1 hr by 15% polyacrylamide gel electrophoresis
[5] = Inhibition of Bacteriophage […] using 22-mer and 18-mer DNA complementary strand as substrate after 1 hr by 15% polyacrylamide gel electrophoresis; design: species or system Tequatrovirus T4
[6] = biological target: DNA ligase 1 (Homo sapiens, UniProt P18858); experiment: Inhibition of human DNA ligase 1 expressed in Escherichia coli BL21 (DE3) using 22-mer and 18-mer DNA complementary strand as substrate after 1 hr by 15% polyacrylamide gel electrophoresis
Sequence of DNA ligase 1 (P18858 whole entry): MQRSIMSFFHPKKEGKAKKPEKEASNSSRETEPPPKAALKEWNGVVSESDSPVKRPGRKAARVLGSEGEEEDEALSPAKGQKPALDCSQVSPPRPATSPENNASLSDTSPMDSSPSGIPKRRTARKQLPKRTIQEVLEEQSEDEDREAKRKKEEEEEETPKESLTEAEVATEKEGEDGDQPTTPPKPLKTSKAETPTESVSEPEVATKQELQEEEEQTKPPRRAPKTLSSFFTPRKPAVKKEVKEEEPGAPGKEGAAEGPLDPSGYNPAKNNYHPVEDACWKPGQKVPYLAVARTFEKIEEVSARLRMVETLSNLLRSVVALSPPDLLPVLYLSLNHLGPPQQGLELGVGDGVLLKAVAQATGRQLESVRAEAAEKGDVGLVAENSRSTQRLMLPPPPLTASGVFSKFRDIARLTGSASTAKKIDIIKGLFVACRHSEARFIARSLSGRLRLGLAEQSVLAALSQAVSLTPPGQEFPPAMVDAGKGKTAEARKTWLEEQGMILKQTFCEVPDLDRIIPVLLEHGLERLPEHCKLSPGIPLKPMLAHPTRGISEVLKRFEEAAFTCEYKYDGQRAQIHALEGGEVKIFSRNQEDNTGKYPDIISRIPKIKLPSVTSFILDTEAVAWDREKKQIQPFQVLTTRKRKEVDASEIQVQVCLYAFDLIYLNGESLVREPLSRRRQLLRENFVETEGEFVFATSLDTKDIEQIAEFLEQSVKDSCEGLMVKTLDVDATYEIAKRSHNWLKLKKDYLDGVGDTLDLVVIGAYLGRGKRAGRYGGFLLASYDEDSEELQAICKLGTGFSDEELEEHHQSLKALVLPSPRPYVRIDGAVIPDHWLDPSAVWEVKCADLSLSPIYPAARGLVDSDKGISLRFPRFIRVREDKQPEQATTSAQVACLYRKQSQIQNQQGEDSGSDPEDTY

[7] = Ratio of IC50 for Bacteriophage T4 DNA ligase to IC50 for Mycobacterium tuberculosis DNA LigA
[8] = Ratio of IC50 for human DNA ligase 1 to IC50 for Mycobacterium tuberculosis DNA LigA
[9] = species: Bos taurus; experiment: Displacement of ethidium bromide from calf thymus DNA assessed as relative fluorescence intensity at 250 uM
[10] = system: Escherichia coli; experiment: Binding affinity to Escherichia coli pUC18 DNA after 1 hr by gel shift assay
[11] = system: Salmonella typhimurium; experiment: Bactericidal activity against Salmonella typhimurium LT2 expressing LigA assessed as bacterial cell viability at 0.5 to 2.5 times MIC after 5 hrs; format: functional, organism-based; conditions: Salmonella enterica subsp. enterica serovar Typhimurium
[12] = system: Salmonella typhimurium; experiment: Bactericidal activity against Salmonella typhimurium TT15151 harboring LigA null mutant rescued with ATP-dependent DNA ligase assessed as bacterial cell viability at 0.5 to 2.5 times MIC after 5 hrs; format: functional, organism-based; conditions: Salmonella enterica subsp. enterica serovar Typhimurium
[13] = Competitive inhibition of Mycobacterium tuberculosis DNA LigA using NDA+ as substrate by double reciprocal plot analysis
[14] = Salmonella enterica subsp. enterica serovar Typhimurium
[15] = Salmonella enterica, TT15151, 20 h

Row | Compound | MIC ([1]; GR501, 20 h) | MIC [2, 14] | MIC [3, 15] | MIC [1] | IC50 [4] | IC50 [5] | Ratio IC50 [7] | Ratio IC50 [8] | other results
1 | C=CCOc1ccc(OCc2cc(Cl)ccc2Cl)cc1C(=O)NO | 400 µg/mL (≈ 1090 µM) | inactive | 800 µg/mL (≈ 2170 µM) | – | – | – | – | – | –
2 | C=CCOc1ccc(C(=O)NO)c(OCC=C)c1 | 150 µg/mL (≈ 602 µM) | – | – | – | – | – | – | – | MIC ([2]; Salmonella enterica, LT2, 20 h): 800 µg/mL (≈ 3210 µM); MIC [3, 14]: inactive
3 | C=CCOc1c(OCc2ccccc2)cccc1C(=O)NO | – | inactive | – | inactive | – | – | – | – | MIC [3, 14]: inactive
4 | O=C(NO)c1ccccc1OCC(O)Cn1cc(-c2ccccc2)nn1 (stereo not drawn) | 40 µg/mL (≈ 113 µM) | – | 50 µg/mL (≈ 141 µM) | – | 11.4 µM | 31.4 µM | 10 | 10 | MIC ([2]; Salmonella enterica, LT2, 20 h): 30 µg/mL (≈ 84.7 µM); IC50 [6]: 41.8 µM; Activity [9]: inactive; Activity [10]: inactive
5 | O=C(NO)c1ccccc1OCc1cccc(Cl)c1 | – | – | – | inactive | 24 µM | 8 µM | 10 | 10 | –
6 | C#CCOc1ccc(OCC=C)c(C(=O)NO)c1 | 150 µg/mL (≈ 607 µM) | – | – | – | – | – | – | – | MIC ([2]; Salmonella enterica, LT2, 20 h): 600 µg/mL (≈ 2430 µM); MIC [3, 14]: inactive
7 | C=CCOc1cccc(C(=O)NO)c1OCC=C | – | inactive | 400 µg/mL (≈ 1600 µM) | inactive | – | – | – | – | –
8 | O=C(NO)c1ccc2ccccc2c1OCc1cccc(Cl)c1 | – | – | – | inactive | 20 µM | 12 µM | 10 | 10 | –
9 | C=CCOc1ccc(OCC=C)c(C(=O)NO)c1 | 200 µg/mL (≈ 802 µM) | inactive | 150 µg/mL (≈ 602 µM) | – | – | – | – | – | –
10 | C=CCOc1ccc(OCc2ccc(Br)cc2)cc1C(=O)NO | 80 µg/mL (≈ 212 µM) | inactive | 20 µg/mL (≈ 52.9 µM) | – | – | – | – | – | –
11 | C=CCOc1cc(OCc2ccc(Br)cc2)ccc1C(=O)NO | – | inactive | 40 µg/mL (≈ 106 µM) | inactive | – | – | – | – | –
12 | C=CCOc1cc(OCc2cc(Cl)ccc2Cl)ccc1C(=O)NO | – | inactive | 200 µg/mL (≈ 543 µM) | inactive | – | – | – | – | –
13 | O=C(NO)c1ccc2ccccc2c1OCc1ccc(Cl)c(Cl)c1 | > 200 µg/mL | – | – | – | 10.6 µM | 5.5 µM | 10 | 10 | –
14 | C=CCOc1ccc(OCc2ccccc2)cc1C(=O)NO | 400 µg/mL (≈ 1340 µM) | inactive | 150 µg/mL (≈ 501 µM) | – | – | – | – | – | –
15 | C=CCOc1ccccc1C(=O)NO | 90 µg/mL (≈ 466 µM) | – | 70 µg/mL (≈ 362 µM) | – | 7.07 µM | 62.3 µM | 10 | 10 | MIC ([2]; Salmonella enterica, LT2, 20 h): 20 µg/mL (≈ 104 µM); Activity [11]: Active; Activity [12]: Active; IC50 [6]: 59.3 µM; Ki [13]: 4.3 µM; Activity [9]: inactive; Activity [10]: inactive
16 | O=C(NO)c1ccccc1OCc1ccc(Cl)c(Cl)c1 | – | – | – | inactive | 20 µM | < 20 µM | 10 | 10 | –
17 | CCCCCCOc1c(C(=O)NO)ccc2ccccc12 | > 200 µg/mL | – | – | – | 13.6 µM | 9.6 µM | 10 | 10 | –
